According to patent US11472792B2, “Herbicidal mixtures” (SYNGENTA CROP PROTECTION AG, priority 2019, dated 2022):

Assays:
Assay type in all cases: in vivo
[1] = test system: Abutilon theophrasti (ABUTH); assay: Herbicidal efficacy, post-emergence application (glasshouse); conditions: Abutilon theophrasti, 312 h, evaluated visually after 13 days, 100=total damage, 0=no damage, read-out: percentage phytotoxicity to the plant, ABUTH
Procedure: (§1) Seeds of a variety of test species [Ipomoea hederacea (IPOHE); Zea mays (ZEAMX); Echinochloa crus-galli (ECHCG); Setaria faberi (SETFA); Abutilon theophrasti (ABUTH); Amaranthus retroflexus (AMARE)] were sown in standard sterilised soil in pots. After cultivation for one day (pre-emergence) or after 8 days cultivation (post-emergence) under controlled conditions in a glasshouse (at 24/16° C., day/night; 14 hours light; 65% humidity), the plants were sprayed with an aqueous spray solution derived from the formulation of the technical active ingredient in acetone/water (50:50) solution containing 0.5% Tween 20 (polyoxyethelyene sorbitan monolaurate, CAS RN 9005-64-5), subsequently diluted in water, and sprayed to give the stated application rate.
(§2) The test plants were then grown under controlled conditions in a glasshouse (at 24/16° C., day/night; 14 hours light; 65% humidity) and watered twice daily.
(§3) After 13 days for pre and post-emergence, the test was evaluated visually for percentage phytotoxicity to the plant (where 100=total damage to plant; 0=no damage to plant).

[2] = test system: Amaranthus retroflexus (AMARE); assay: as above; conditions: Amaranthus retroflexus, 312 h, evaluated visually after 13 days, 100=total damage, 0=no damage, read-out: percentage phytotoxicity to the plant, AMARE
Procedure: as §1, §2, §3

[3] = test system: Echinochloa crus-galli (ECHCG); assay: as above; conditions: Echinochloa crus-galli, 312 h, evaluated visually after 13 days, 100=total damage, 0=no damage, read-out: percentage phytotoxicity to the plant, ECHCG
Procedure: as §1, §2, §3

[4] = test system: Ipomoea hederacea (IPOHE); assay: as above; conditions: Ipomoea hederacea, 312 h, evaluated visually after 13 days, 100=total damage, 0=no damage, read-out: percentage phytotoxicity to the plant, IPOHE
Procedure: as §1, §2, §3

Setaria faberi (SETFA) [5] = assay: as above; conditions: Setaria faberi, 312 h, evaluated visually after 13 days, 100=total damage, 0=no damage, read-out: percentage phytotoxicity to the plant, SETFA
Procedure: as §1, §2, §3

Zea mays (ZEAMX) [6] = assay: as above; conditions: Zea mays, 312 h, evaluated visually after 13 days, 100=total damage, 0=no damage, read-out: percentage phytotoxicity to the plant, ZEAMX
Procedure: as §1, §2, §3

[7] = test system: Abutilon theophrasti (ABUTH); assay: Herbicidal efficacy, pre-emergence application (glasshouse); conditions: Abutilon theophrasti, 312 h, evaluated visually after 13 days, 100=total damage, 0=no damage, read-out: percentage phytotoxicity to the plant, ABUTH
Procedure: as §1, §2, §3

[8] = test system: Amaranthus retroflexus (AMARE); assay: as above; conditions: Amaranthus retroflexus, 312 h, evaluated visually after 13 days, 100=total damage, 0=no damage, read-out: percentage phytotoxicity to the plant, AMARE
Procedure: as §1, §2, §3

[9] = test system: Echinochloa crus-galli (ECHCG); assay: as above; conditions: Echinochloa crus-galli, 312 h, evaluated visually after 13 days, 100=total damage, 0=no damage, read-out: percentage phytotoxicity to the plant, ECHCG
Procedure: as §1, §2, §3

[10] = test system: Ipomoea hederacea (IPOHE); assay: as above; conditions: Ipomoea hederacea, 312 h, evaluated visually after 13 days, 100=total damage, 0=no damage, read-out: percentage phytotoxicity to the plant, IPOHE
Procedure: as §1, §2, §3

Setaria faberi (SETFA) [11] = assay: as above; conditions: Setaria faberi, 312 h, evaluated visually after 13 days, 100=total damage, 0=no damage, read-out: percentage phytotoxicity to the plant, SETFA
Procedure: as §1, §2, §3

Zea mays (ZEAMX) [12] = assay: as above; conditions: Zea mays, 312 h, evaluated visually after 13 days, 100=total damage, 0=no damage, read-out: percentage phytotoxicity to the plant, ZEAMX
Procedure: as §1, §2, §3

COc1c(F)cccc1NC(=O)[C@H]1C(=O)N(C)C[C@@H]1c1cc(C(F)(F)F)n(C)n1 [Compound 2.6, (3S,4R)-N-(3-fluoro-2-methoxy-phenyl)-1-methyl-4-[1-methyl-5-(trifluoromethyl)pyrazol-3-yl]-2-oxo-pyrrolidine-3-carboxamide]
pest or weed control at 250 g/ha [1]: 0% | pest or weed control at 250 g/ha [2]: 0% | pest or weed control at 250 g/ha [3]: 70% | pest or weed control at 250 g/ha [4]: 50% | pest or weed control at 250 g/ha (Setaria faberi (SETFA) [5]): 70% | plant injury at 250 g/ha (Zea mays (ZEAMX) [6]): 80% | pest or weed control at 250 g/ha [7]: 0% | pest or weed control at 250 g/ha [8]: 0% | pest or weed control at 250 g/ha [9]: 90% | pest or weed control at 250 g/ha [10]: 20% | pest or weed control at 250 g/ha (Setaria faberi (SETFA) [11]): 90% | plant injury at 250 g/ha (Zea mays (ZEAMX) [12]): 80%

CN1C[C@H](c2cc(C(F)(F)F)n(C)n2)[C@@H](C(=O)Nc2ccc(F)c(F)c2F)C1=O [Compound 2.7, (3S,4R)-1-methyl-4-[1-methyl-5-(trifluoromethyl)pyrazol-3-yl]-2-oxo-N-(2,3,4-trifluorophenyl)pyrrolidine-3-carboxamide]
pest or weed control at 250 g/ha [1]: 0% | pest or weed control at 250 g/ha [2]: 50% | pest or weed control at 250 g/ha [3]: 80% | pest or weed control at 250 g/ha [4]: 0% | pest or weed control at 250 g/ha (Setaria faberi (SETFA) [5]): 80% | plant injury at 250 g/ha (Zea mays (ZEAMX) [6]): 80% | pest or weed control at 250 g/ha [7]: 10% | pest or weed control at 250 g/ha [8]: 20% | pest or weed control at 250 g/ha [9]: 100% | pest or weed control at 250 g/ha [10]: 20% | pest or weed control at 250 g/ha (Setaria faberi (SETFA) [11]): 90% | plant injury at 250 g/ha (Zea mays (ZEAMX) [12]): 90%

CN1C[C@H](c2cc(C(F)(F)F)n(C)n2)[C@@H](C(=O)Nc2ccc(F)nc2F)C1=O [Compound 2.8, (3S,4R)-N-(2,6-difluoro-3-pyridyl)-1-methyl-4-[1-methyl-5-(trifluoromethyl)pyrazol-3-yl]-2-oxo-pyrrolidine-3-carboxamide]
pest or weed control at 250 g/ha [1]: 0% | pest or weed control at 250 g/ha [2]: 0% | pest or weed control at 250 g/ha [3]: 80% | pest or weed control at 250 g/ha [4]: 30% | pest or weed control at 250 g/ha (Setaria faberi (SETFA) [5]): 80% | plant injury at 250 g/ha (Zea mays (ZEAMX) [6]): 80% | pest or weed control at 250 g/ha [7]: 0% | pest or weed control at 250 g/ha [8]: 20% | pest or weed control at 250 g/ha [9]: 90% | pest or weed control at 250 g/ha [10]: 0% | pest or weed control at 250 g/ha (Setaria faberi (SETFA) [11]): 90% | plant injury at 250 g/ha (Zea mays (ZEAMX) [12]): 40%

CN1C[C@H](c2cc(C(F)(F)F)n(C)n2)[C@@H](C(=O)Nc2cccc(F)n2)C1=O [Compound 2.9, (3S,4R)-N-(6-fluoro-2-pyridyl)-1-methyl-4-[1-methyl-5-(trifluoromethyl)pyrazol-3-yl]-2-oxo-pyrrolidine-3-carboxamide]
pest or weed control at 250 g/ha [1]: 0% | pest or weed control at 250 g/ha [2]: 0% | pest or weed control at 250 g/ha [3]: 80% | pest or weed control at 250 g/ha [4]: 50% | pest or weed control at 250 g/ha (Setaria faberi (SETFA) [5]): 80% | plant injury at 250 g/ha (Zea mays (ZEAMX) [6]): 40% | pest or weed control at 250 g/ha [7]: 0% | pest or weed control at 250 g/ha [8]: 0% | pest or weed control at 250 g/ha [9]: 100% | pest or weed control at 250 g/ha [10]: 40% | pest or weed control at 250 g/ha (Setaria faberi (SETFA) [11]): 90% | plant injury at 250 g/ha (Zea mays (ZEAMX) [12]): 80%

CN1C[C@H](c2cc(C(F)(F)F)n(C)n2)[C@@H](C(=O)Nc2cccc(F)c2OC(F)F)C1=O [Compound 2.10, (3S,4R)-N-[2-(difluoromethoxy)-3-fluoro-phenyl]-1-methyl-4-[1-methyl-5-(trifluoromethyl)pyrazol-3-yl]-2-oxo-pyrrolidine-3-carboxamide]
pest or weed control at 250 g/ha [1]: 0% | pest or weed control at 250 g/ha [2]: 0% | pest or weed control at 250 g/ha [3]: 80% | pest or weed control at 250 g/ha [4]: 30% | pest or weed control at 250 g/ha (Setaria faberi (SETFA) [5]): 80% | plant injury at 250 g/ha (Zea mays (ZEAMX) [6]): 80% | pest or weed control at 250 g/ha [7]: 0% | pest or weed control at 250 g/ha [8]: 0% | pest or weed control at 250 g/ha [9]: 90% | pest or weed control at 250 g/ha [10]: 20% | pest or weed control at 250 g/ha (Setaria faberi (SETFA) [11]): 90% | plant injury at 250 g/ha (Zea mays (ZEAMX) [12]): 40%

CCc1ccccc1NC(=O)[C@H]1C(=O)N(C)C[C@@H]1c1cc(C(F)(F)F)n(C)n1 [Compound 2.11, (3S,4R)-N-(2-ethylphenyl)-1-methyl-4-[1-methyl-5-(trifluoromethyl)pyrazol-3-yl]-2-oxo-pyrrolidine-3-carboxamide]
pest or weed control at 250 g/ha [1]: 0% | pest or weed control at 250 g/ha [2]: 20% | pest or weed control at 250 g/ha [3]: 80% | pest or weed control at 250 g/ha [4]: 0% | pest or weed control at 250 g/ha (Setaria faberi (SETFA) [5]): 80% | plant injury at 250 g/ha (Zea mays (ZEAMX) [6]): 0% | pest or weed control at 250 g/ha [7]: 0% | pest or weed control at 250 g/ha [8]: 70% | pest or weed control at 250 g/ha [9]: 90% | pest or weed control at 250 g/ha [10]: 0% | pest or weed control at 250 g/ha (Setaria faberi (SETFA) [11]): 90% | plant injury at 250 g/ha (Zea mays (ZEAMX) [12]): 20%
